“And” between values parts separate entries of the source, which are not always exact repeats. Identical values can stand only once.
Experiments:
HFD-fed C57BL/6J mice = assay: DIO mice: intraperitoneal glucose tolerance test (IPGTT); assay type: in vivo, mouse; design: Mean Diff. (Vehicle vs. 11c), GTT blood glucose / Mean 2 (11c group), GTT blood glucose: unit not given here; settings: for Mean Diff. (Vehicle vs. 11c), GTT blood glucose: Dunnett's multiple comparisons test; for Significant? (Vehicle vs. 11c), GTT blood glucose: Dunnett's test, alpha 0.05; for Mean 2 (11c group), GTT blood glucose: test details, mixed-effects model; for Blood Glucose Level 0 min / Blood Glucose Level 15 min / Blood Glucose Level 30 min / Blood Glucose Level 60 min / Blood Glucose Level 90 min / Blood Glucose Level 120 min / Blood Glucose Level AUC: GTT, PO
Procedure: For the glucose tolerance test, overnight fasted mice were intraperitoneally injected with 2 g/kg D-glucose (Sigma-Aldrich). Glucose concentrations were measured using a Gluco DR. TOP glucometer (Allmedicus). The AUC (area under the curve) during the GTT was calculated using GraphPad Prism 8.0 software (La Jolla, CA, USA) by the trapezoidal method.

Col1a1 = assay: CDAHFD mice: liver Col1a1 RNA expression (qRT-PCR); assay type: in vivo, mouse; settings: for Relative liver Col1a1 expressions in mice, measured using quantitative RT-PCR: individual mice and Average; for Col1A1 mRNA, Mean Diff.: Tukey; for Col1A1 mRNA, Median / Col1A1 mRNA, Mean: n=5; for Col1A1 mRNA, Mean: Column A = 1
From the text: C57BL/6 J male mice were purchased from the Japan SLC. Inc (Hamamatsu, Japan). Mice (5 weeks old) were fed Teklad Certitied Irradiated Global 18% protein rodent diet purchased from Dooyeol Biotech Co. Ltd (Seoul, South Korea) during the acclimation period. The liver fibrosis/inflammation-induced groups were CDAHFD-fed (A06071302, Research diet). […]. […] All animal experiments complied with the relevant ethical regulations.
The frozen liver tissue was homogenized and put into QiAzol (Qiagen, Hilden) to isolate RNA, and 4 μg of RNA was synthesized into cDNA using the RevertAid First Strand cDNA synthesis kit (Thermo Fischer, Waltham). The expressions of mouse collagen I (Forward: 5’-TGTGTTCCCTACTCAGCCGTG-3’. Reverse: 5’-CATCGGTCATGCTCTCTCCAA-3’), mouse α-SMA (Forward:5’-TCCTGACGCTGAAGTATCCGAT-3’, Reverse: 5’-GGCCACACAAAGCTCGTTATAG-3’) and mouse 36B4 (Forward: 5’-ACCTCCTTCTTCCAGGCTTT-3’, Reverse: 5’-CTCCAGTCTTTATCAGCTGC-3’) as house-keeping gene were measured using ViiA 7 Real-time PCR system (Thermo Fischer scientific).

in vitro [1] = settings: human
in vitro [2] = settings: mouse
[3] = Column C (11c 5mpk) vs. Column B
[4] = Column D (11c 10mpk) vs. Column B

## Cc1nc2n(c(=O)c1CCN1CCC(=C3c4ccc(Cl)cc4CCc4cccnc43)CC1)CCCC2O (stereo not drawn) [Compound 11c]
HFD-fed C57BL/6J mice; 5mpk, 0 min
  Mean Diff. (Vehicle vs. 11c), GTT blood glucose: 17.89
  Significant? (Vehicle vs. 11c), GTT blood glucose: No
  Mean 2 (11c group), GTT blood glucose: 206.4
HFD-fed C57BL/6J mice; 5mpk, 15 min
  Mean Diff. (Vehicle vs. 11c), GTT blood glucose: -1.429
  Significant? (Vehicle vs. 11c), GTT blood glucose: No
  Mean 2 (11c group), GTT blood glucose: 542.4
HFD-fed C57BL/6J mice; 5mpk, 30 min
  Mean Diff. (Vehicle vs. 11c), GTT blood glucose: 41.17
  Significant? (Vehicle vs. 11c), GTT blood glucose: No
  Mean 2 (11c group), GTT blood glucose: 575
HFD-fed C57BL/6J mice; 5mpk, 60 min
  Mean Diff. (Vehicle vs. 11c), GTT blood glucose: 150
  Significant? (Vehicle vs. 11c), GTT blood glucose: Yes
  Mean 2 (11c group), GTT blood glucose: 473.2
HFD-fed C57BL/6J mice; 5mpk, 90 min
  Mean Diff. (Vehicle vs. 11c), GTT blood glucose: 176.5
  Significant? (Vehicle vs. 11c), GTT blood glucose: Yes
  Mean 2 (11c group), GTT blood glucose: 359.1
HFD-fed C57BL/6J mice; 5mpk, 120 min
  Mean Diff. (Vehicle vs. 11c), GTT blood glucose: 168.6
  Significant? (Vehicle vs. 11c), GTT blood glucose: Yes
  Mean 2 (11c group), GTT blood glucose: 270.4
HFD-fed C57BL/6J mice; 5 or 10 mpk, DIO mice
  Glucose tolerance: improved
HFD-fed C57BL/6J mice; 10mpk, 0 min
  Mean Diff. (Vehicle vs. 11c), GTT blood glucose: 40.33
  Significant? (Vehicle vs. 11c), GTT blood glucose: No
  Mean 2 (11c group), GTT blood glucose: 183.9
HFD-fed C57BL/6J mice; 10mpk, 15 min
  Mean Diff. (Vehicle vs. 11c), GTT blood glucose: 13.5
  Significant? (Vehicle vs. 11c), GTT blood glucose: No
  Mean 2 (11c group), GTT blood glucose: 527.5
HFD-fed C57BL/6J mice; 10mpk, 30 min
  Mean Diff. (Vehicle vs. 11c), GTT blood glucose: 33.08
  Significant? (Vehicle vs. 11c), GTT blood glucose: No
HFD-fed C57BL/6J mice; 10mpk, 60 min
  Mean Diff. (Vehicle vs. 11c), GTT blood glucose: 136.4
  Significant? (Vehicle vs. 11c), GTT blood glucose: No
  Mean 2 (11c group), GTT blood glucose: 486.8
HFD-fed C57BL/6J mice; 10mpk, 90 min
  Mean Diff. (Vehicle vs. 11c), GTT blood glucose: 180.6
  Significant? (Vehicle vs. 11c), GTT blood glucose: Yes
HFD-fed C57BL/6J mice; 10mpk, 120 min
  Mean Diff. (Vehicle vs. 11c), GTT blood glucose: 191.3
  Significant? (Vehicle vs. 11c), GTT blood glucose: Yes
  Mean 2 (11c group), GTT blood glucose: 247.7
HFD-fed C57BL/6J mice; DIO mice, 5mpk, 0 min, group mean
  Blood Glucose Level 0 min: 206.4 mg/dL
HFD-fed C57BL/6J mice; DIO mice, 5mpk, 0 min, individual animals, 5 mg/kg
  Blood Glucose Level 0 min: 241.0 mg/dL and 220.5 mg/dL and 182.0 mg/dL and 211.0 mg/dL and 157.0 mg/dL and 205.0 mg/dL and 228.0 mg/dL
HFD-fed C57BL/6J mice; DIO mice, 5mpk, 15 min, group mean
  Blood Glucose Level 15 min: 542.4 mg/dL
HFD-fed C57BL/6J mice; DIO mice, 5mpk, 15 min, individual animals, 5 mg/kg
  Blood Glucose Level 15 min: 629.0 mg/dL and 541.0 mg/dL and 509.0 mg/dL and 553.5 mg/dL and 596.5 mg/dL and 427.0 mg/dL
HFD-fed C57BL/6J mice; DIO mice, 5mpk, 30 min, group mean
  Blood Glucose Level 30 min: 575.0 mg/dL
HFD-fed C57BL/6J mice; DIO mice, 5mpk, 30 min, individual animals, 5 mg/kg
  Blood Glucose Level 30 min: 662.5 mg/dL and 628.5 mg/dL and 650.5 mg/dL and 617.5 mg/dL and 539.5 mg/dL and 470.5 mg/dL and 456.0 mg/dL
HFD-fed C57BL/6J mice; DIO mice, 5mpk, 60 min, group mean
  Blood Glucose Level 60 min: 473.2 mg/dL
HFD-fed C57BL/6J mice; DIO mice, 5mpk, 60 min, individual animals, 5 mg/kg
  Blood Glucose Level 60 min: 526.0 mg/dL and 500.0 mg/dL and 631.5 mg/dL and 438.0 mg/dL and 309.5 mg/dL and 481.5 mg/dL and 426.0 mg/dL
HFD-fed C57BL/6J mice; DIO mice, 5mpk, 90 min, group mean
  Blood Glucose Level 90 min: 359.1 mg/dL
HFD-fed C57BL/6J mice; DIO mice, 5mpk, 90 min, individual animals, 5 mg/kg
  Blood Glucose Level 90 min: 412.0 mg/dL and 393.0 mg/dL and 445.5 mg/dL and 295.0 mg/dL and 202.0 mg/dL and 352.0 mg/dL and 414.5 mg/dL
HFD-fed C57BL/6J mice; DIO mice, 5mpk, 120 min, group mean
  Blood Glucose Level 120 min: 270.4 mg/dL
HFD-fed C57BL/6J mice; DIO mice, 5mpk, 120 min, individual animals, 5 mg/kg
  Blood Glucose Level 120 min: 297.0 mg/dL and 295.0 mg/dL and 358.5 mg/dL and 219.0 mg/dL and 181.0 mg/dL and 242.5 mg/dL and 299.5 mg/dL
HFD-fed C57BL/6J mice; DIO mice, 5mpk, group mean
  Blood Glucose Level AUC: 26885.0 mg·min/dL
HFD-fed C57BL/6J mice; DIO mice, 10mpk, 0 min, group mean
  Blood Glucose Level 0 min: 183.9 mg/dL
HFD-fed C57BL/6J mice; DIO mice, 10mpk, 0 min, individual animals, 10 mg/kg
  Blood Glucose Level 0 min: 113.5 mg/dL and 200.5 mg/dL and 204.0 mg/dL and 222.5 mg/dL and 179.0 mg/dL and 184.0 mg/dL
HFD-fed C57BL/6J mice; DIO mice, 10mpk, 15 min, group mean
  Blood Glucose Level 15 min: 527.5 mg/dL
HFD-fed C57BL/6J mice; DIO mice, 10mpk, 15 min, individual animals, 10 mg/kg
  Blood Glucose Level 15 min: 483.5 mg/dL and 423.0 mg/dL and 498.0 mg/dL and 646.0 mg/dL and 555.0 mg/dL and 559.5 mg/dL
HFD-fed C57BL/6J mice; DIO mice, 10mpk, 30 min, group mean
  Blood Glucose Level 30 min: 591.4 mg/dL
HFD-fed C57BL/6J mice; DIO mice, 10mpk, 30 min, individual animals, 10 mg/kg
  Blood Glucose Level 30 min: 550.5 mg/dL and 531.0 mg/dL and 653.0 mg/dL and 657.0 mg/dL and 577.0 mg/dL and 580.0 mg/dL
HFD-fed C57BL/6J mice; DIO mice, 10mpk, 60 min, group mean
  Blood Glucose Level 60 min: 486.8 mg/dL
HFD-fed C57BL/6J mice; DIO mice, 10mpk, 60 min, individual animals, 10 mg/kg
  Blood Glucose Level 60 min: 370.0 mg/dL and 458.5 mg/dL and 558.0 mg/dL and 603.0 mg/dL and 357.5 mg/dL and 574.0 mg/dL
HFD-fed C57BL/6J mice; DIO mice, 10mpk, 90 min, group mean
  Blood Glucose Level 90 min: 365.9 mg/dL
HFD-fed C57BL/6J mice; DIO mice, 10mpk, 90 min, individual animals, 10 mg/kg
  Blood Glucose Level 90 min: 283.5 mg/dL and 422.0 mg/dL and 442.0 mg/dL and 440.5 mg/dL and 227.0 mg/dL and 380.5 mg/dL
HFD-fed C57BL/6J mice; DIO mice, 10mpk, 120 min, group mean
  Blood Glucose Level 120 min: 247.7 mg/dL
HFD-fed C57BL/6J mice; DIO mice, 10mpk, 120 min, individual animals, 10 mg/kg
  Blood Glucose Level 120 min: 170.0 mg/dL and 260.5 mg/dL and 387.0 mg/dL and 315.5 mg/dL and 148.5 mg/dL and 204.5 mg/dL
HFD-fed C57BL/6J mice; DIO mice, 10mpk, group mean
  Blood Glucose Level AUC: 28219.0 mg·min/dL
Col1a1; CDAHFD+11c 5 mpk
  Relative liver Col1a1 expressions in mice, measured using quantitative RT-PCR: 27.265 and 19.811 and 25.539 and 19.317 and 28.556
Col1a1; CDAHFD+11c 5 mpk, mean
  Relative liver Col1a1 expressions in mice, measured using quantitative RT-PCR: 24.098
Col1a1; CDAHFD+11c 10mpk
  Relative liver Col1a1 expressions in mice, measured using quantitative RT-PCR: 18.660 and 20.539 and 29.586 and 37.388 and 28.021
Col1a1; CDAHFD+11c 10mpk, mean
  Relative liver Col1a1 expressions in mice, measured using quantitative RT-PCR: 26.839
Col1a1; CDAHFD-fed 11c vs CDAHFD-fed vehicle group
  mRNA expression of Col1a1 in liver tissue: significantly decreased
Col1a1; Column A (Vehicle, no CDAHFD) vs. Column C (11c 5mpk)
  Col1A1 mRNA, Mean Diff.: -23.1
Col1a1; Column A (Vehicle, no CDAHFD) vs. Column D (11c 10mpk)
  Col1A1 mRNA, Mean Diff.: -25.84
Col1a1; Column B (CDAHFD+vehicle) vs. Column C (11c 5mpk)
  Col1A1 mRNA, Mean Diff.: 14.99
Col1a1; Column B (CDAHFD+vehicle) vs. Column D (11c 10mpk)
  Col1A1 mRNA, Mean Diff.: 12.25
Col1a1; [3]
  Col1A1 mRNA, Difference between medians: Actual: -15.12
  Col1A1 mRNA, Difference between medians: Hodges-Lehmann: -15.12
Col1a1; Column C (11c 5mpk) vs. Column D (11c 10mpk)
  Col1A1 mRNA, Mean Diff.: -2.741
Col1a1; Column C (11c 5mpk)
  Col1A1 mRNA, Median: 25.54, n=5
Col1a1; Column C (CDAHFD+11c 5mpk)
  Col1A1 mRNA, Mean: 24.1
Col1a1; [4]
  Col1A1 mRNA, Difference between medians: Actual: -12.64
  Col1A1 mRNA, Difference between medians: Hodges-Lehmann: -12.18
Col1a1; Column D (11c 10mpk)
  Col1A1 mRNA, Median: 28.02, n=5
Col1a1; Column D (CDAHFD+11c 10mpk)
  Col1A1 mRNA, Mean: 26.84
In vitro [1]
  IC50: > 100 µM
In vitro [2]
  IC50: > 100 µM

Reference: publication PMC10799935, “Discovery of a peripheral 5HT2A antagonist as a clinical candidate for metabolic dysfunction-associated steatohepatitis” (Nature Communications, 2024)
